Activity calls are given as the source filed them.
What was measured:
[1] = Vero E6 cell cytotoxicity, dose response, cytotoxicity control for non-replicating M. tuberculosis project, secondary assay (AID 492998); type: functional, VeroE6; settings: Vero C1008
[2] = test system: CHO; experiment: cytotoxicity in TLR9-MyD88 CHO cells, dose response, cytotoxicity control for TLR9-MyD88 binding inhibitor project, cell-based, luminescence (AID 588339); type: functional, hamster; settings: Cricetulus griseus;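 also: CHO cells stably coexpressing TLR9 and MyD88 fusions from primary screen; compound exposure lasted 48 hours before viability readout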
[3] = biological target: Beta Lactamase (Pseudomonas aeruginosa, UniProt Q932Y6); experiment: beta-lactamase reporter inhibitor potency, dose response, artefact control for TLR9-MyD88 binding inhibitor project, BLA reporter cells, FRET fluorescence (AID 588341); type: cell-based;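 also: cell based assay in CHO-K1 cells stably expressing beta-lactamase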
[4] = cells; type: functional
[5] = THP-1 cell cytotoxicity, dose response, cytotoxicity control for non-replicating M. tuberculosis project (AID 489025); type: functional
[6] = biological target: DNA dC->dU-editing enzyme APOBEC-3A (Homo sapiens, UniProt P31941); experiment: SAR analysis of small molecule inhibitors of APOBEC3A DNA Deaminase via a fluorescence-based single-stranded DNA deaminase assay.; type: functional; settings: read-out: IC50_Mean
[7] = biological target: DNA dC->dU-editing enzyme APOBEC-3G (Homo sapiens, UniProt Q9HC16); experiment: APOBEC3G deaminase inhibitors, SAR follow-up, biochemical, fluorescence, single-stranded DNA substrate (AID 602136); type: functional; settings: read-out: IC50_Mean
[8] = biological target: Aurora kinase A (Homo sapiens, UniProt O14965); type: functional;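 also: value from the Navigating the Kinome kinase panel profiling, panel entry STK6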
[9] = biological target: ALK tyrosine kinase receptor (Homo sapiens, UniProt Q9UM73); type: functional;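 also: ALK tested as one member of a kinase panel screen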
[10] = biological target: Aurora kinase B (Homo sapiens, UniProt Q96GD4); type: functional
[11] = biological target: Focal adhesion kinase 1 (Homo sapiens, UniProt Q05397); type: functional;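 also: measured as one member of a kinome panel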
[12] = biological target: Protein disulfide-isomerase A6 (Homo sapiens, UniProt Q15084); experiment: Secondary Assay for Selectivity of PDI Inhibitors (against ERp5) Measured in Biochemical System Using Plate Reader - 2137-04_Inhibitor_Dose_DryPowder_Activity_Set3.
[13] = inhibitors of SNCA 5'UTR-driven reporter translation, confirmation, H4 neuroglioma cells, luminescence (AID 1988); type: functional, cell-based
[14] = biological target: T1, Replicative DNA helicase DnaB (Mycobacterium tuberculosis, UniProt P9WMR3); experiment: DnaB intein splicing inhibitors, dose response, biochemical, cell-free fluorescence (AID 449749); type: functional
T1 sequence (P9WMR3 whole entry): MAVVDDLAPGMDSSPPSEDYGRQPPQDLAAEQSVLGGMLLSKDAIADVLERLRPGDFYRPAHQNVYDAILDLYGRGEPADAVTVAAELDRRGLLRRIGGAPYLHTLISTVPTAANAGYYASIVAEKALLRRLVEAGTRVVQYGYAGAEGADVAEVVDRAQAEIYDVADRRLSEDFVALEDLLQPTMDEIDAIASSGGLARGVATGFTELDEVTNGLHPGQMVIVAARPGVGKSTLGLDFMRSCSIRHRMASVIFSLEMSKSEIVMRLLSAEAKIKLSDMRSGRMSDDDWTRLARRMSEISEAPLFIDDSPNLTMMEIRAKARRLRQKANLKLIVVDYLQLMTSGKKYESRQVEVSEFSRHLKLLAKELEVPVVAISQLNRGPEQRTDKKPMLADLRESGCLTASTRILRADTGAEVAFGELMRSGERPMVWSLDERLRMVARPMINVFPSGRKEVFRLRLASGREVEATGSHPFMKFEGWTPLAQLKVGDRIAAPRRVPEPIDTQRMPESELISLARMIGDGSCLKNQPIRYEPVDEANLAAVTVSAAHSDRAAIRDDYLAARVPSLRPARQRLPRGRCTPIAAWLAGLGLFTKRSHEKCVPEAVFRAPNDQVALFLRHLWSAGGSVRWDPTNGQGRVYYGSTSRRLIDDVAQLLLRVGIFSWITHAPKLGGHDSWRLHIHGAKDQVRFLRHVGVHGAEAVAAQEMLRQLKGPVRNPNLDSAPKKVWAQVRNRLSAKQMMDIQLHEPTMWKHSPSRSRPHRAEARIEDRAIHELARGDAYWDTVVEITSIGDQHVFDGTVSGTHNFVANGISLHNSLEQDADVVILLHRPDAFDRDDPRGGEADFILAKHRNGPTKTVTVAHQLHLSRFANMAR

[15] = HEK293 cell cytotoxicity, dose response, cytotoxicity control, HEK293T, ATP luminescence, dry powder (AID 652119); type: functional, cell-based
[16] = biological target: T2, Protein disulfide-isomerase (Homo sapiens, UniProt P07237); experiment: PDI inhibitors, insulin turbidity readout, confirmation, biochemical, dry powder samples, set 2 (AID 652146)
[17] = Luminescence Cell-Based Dose Response HTS to Identify Inhibitors of 5'UTR Stem-Loop Driven Prion Protein mRNA Translation in H4 Neuroglioblastoma Cells. [Related pubchem assays: 1827 (Project Summary), 1813 (Primary HTS)]; type: functional
[18] = inhibitors of firefly luciferase expression or activity, dose response, H4 neuroglioma cells, luminescence (AID 1990); type: functional, cell-based
[19] = biological target: T2, Protein disulfide-isomerase; experiment: PDI inhibitors, insulin aggregation turbidity, dose response, biochemical, absorbance, cherry-picked samples (AID 602350); type: functional
[20] = biological target: T3, Protein RecA (Mycobacterium tuberculosis, UniProt P9WHJ3); experiment: Fluorescence Cell-Free Homogeneous Dose Retest to Identify Inhibitors of RecA-Intein Splicing Activity. [Related pubchem assays (depositor defined):AID2097, AID2223, AID489010, AID492950]; type: functional
T3 sequence (P9WHJ3 whole entry): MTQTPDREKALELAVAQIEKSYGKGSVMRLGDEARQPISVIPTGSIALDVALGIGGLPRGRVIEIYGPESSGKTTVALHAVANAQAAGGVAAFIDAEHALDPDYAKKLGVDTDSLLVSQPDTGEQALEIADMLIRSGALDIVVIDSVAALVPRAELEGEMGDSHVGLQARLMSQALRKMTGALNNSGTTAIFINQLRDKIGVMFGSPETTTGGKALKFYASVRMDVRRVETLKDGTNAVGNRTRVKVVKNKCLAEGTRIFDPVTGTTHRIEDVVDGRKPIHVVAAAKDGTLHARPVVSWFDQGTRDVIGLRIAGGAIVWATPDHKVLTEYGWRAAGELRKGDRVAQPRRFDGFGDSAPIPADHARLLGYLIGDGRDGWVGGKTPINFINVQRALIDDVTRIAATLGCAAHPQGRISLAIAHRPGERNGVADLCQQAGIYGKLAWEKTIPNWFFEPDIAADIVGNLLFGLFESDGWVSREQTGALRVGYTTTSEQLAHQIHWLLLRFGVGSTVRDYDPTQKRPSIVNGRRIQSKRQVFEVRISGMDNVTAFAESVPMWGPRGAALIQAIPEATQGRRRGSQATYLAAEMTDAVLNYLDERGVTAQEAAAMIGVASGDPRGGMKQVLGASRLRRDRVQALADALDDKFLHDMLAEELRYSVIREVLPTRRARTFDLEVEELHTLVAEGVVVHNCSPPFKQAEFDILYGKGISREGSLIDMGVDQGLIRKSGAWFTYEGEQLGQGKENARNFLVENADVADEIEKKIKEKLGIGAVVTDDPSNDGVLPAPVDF

[21] = ADAM10 protease inhibitors, dose response, selectivity assay for ADAM17 exosite inhibitor project, biochemical, FRET peptide substrate, recombinant human ADAM10 (AID 743259);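 also: ADAM10 enzyme cleaving a FRET peptide substrate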
[22] = biological target: Disintegrin and metalloproteinase domain-containing protein 17 (Homo sapiens, UniProt P78536); experiment: exosite inhibitors of ADAM17, dose response, biochemical (AID 743260)
[23] = biological target: Latent membrane protein 1 (Human herpesvirus 4 (strain B95-8), UniProt P03230); experiment: TES1-eGFP NF-kB reporter inhibition versus Tet-On dsRED, dose response, selectivity assay for LMP1 NF-kB inhibitor project, imaging, HEK293T, dual-color eGFP/dsRED, cherry-picks (AID 588398); type: functional, cell-based
Latent membrane protein 1, sequence (P03230 whole entry): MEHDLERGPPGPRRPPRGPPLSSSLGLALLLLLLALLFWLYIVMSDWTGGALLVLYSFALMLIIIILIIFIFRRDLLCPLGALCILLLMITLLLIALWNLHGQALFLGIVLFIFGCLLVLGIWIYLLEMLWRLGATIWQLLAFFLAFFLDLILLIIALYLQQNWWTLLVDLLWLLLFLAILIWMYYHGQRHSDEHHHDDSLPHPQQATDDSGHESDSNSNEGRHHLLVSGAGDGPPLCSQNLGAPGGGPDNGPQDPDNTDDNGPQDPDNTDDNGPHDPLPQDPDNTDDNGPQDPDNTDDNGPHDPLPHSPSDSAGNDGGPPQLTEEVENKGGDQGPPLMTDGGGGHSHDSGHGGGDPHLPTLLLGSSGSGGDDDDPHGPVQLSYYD

T2 sequence (P07237 whole entry): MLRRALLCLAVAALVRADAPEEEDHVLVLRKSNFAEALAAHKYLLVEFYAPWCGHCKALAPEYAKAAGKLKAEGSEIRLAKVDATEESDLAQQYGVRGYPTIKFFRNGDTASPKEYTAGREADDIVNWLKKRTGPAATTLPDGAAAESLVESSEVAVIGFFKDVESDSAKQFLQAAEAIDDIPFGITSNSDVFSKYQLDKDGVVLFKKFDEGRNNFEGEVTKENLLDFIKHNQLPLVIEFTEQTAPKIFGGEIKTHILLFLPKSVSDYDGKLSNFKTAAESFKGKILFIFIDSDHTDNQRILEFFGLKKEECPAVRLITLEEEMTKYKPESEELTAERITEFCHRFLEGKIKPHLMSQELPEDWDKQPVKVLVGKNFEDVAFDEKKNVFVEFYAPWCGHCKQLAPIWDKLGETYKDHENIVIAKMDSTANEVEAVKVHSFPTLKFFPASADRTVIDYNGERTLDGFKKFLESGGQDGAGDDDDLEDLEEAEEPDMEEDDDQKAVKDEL
DNA dC->dU-editing enzyme APOBEC-3A, sequence (P31941 whole entry): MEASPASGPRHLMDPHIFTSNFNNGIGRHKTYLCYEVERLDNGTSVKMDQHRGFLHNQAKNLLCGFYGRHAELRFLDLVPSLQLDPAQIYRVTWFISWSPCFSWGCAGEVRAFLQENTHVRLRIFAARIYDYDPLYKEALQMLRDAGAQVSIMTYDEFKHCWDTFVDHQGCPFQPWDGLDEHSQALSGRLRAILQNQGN
DNA dC->dU-editing enzyme APOBEC-3G, sequence (Q9HC16 whole entry): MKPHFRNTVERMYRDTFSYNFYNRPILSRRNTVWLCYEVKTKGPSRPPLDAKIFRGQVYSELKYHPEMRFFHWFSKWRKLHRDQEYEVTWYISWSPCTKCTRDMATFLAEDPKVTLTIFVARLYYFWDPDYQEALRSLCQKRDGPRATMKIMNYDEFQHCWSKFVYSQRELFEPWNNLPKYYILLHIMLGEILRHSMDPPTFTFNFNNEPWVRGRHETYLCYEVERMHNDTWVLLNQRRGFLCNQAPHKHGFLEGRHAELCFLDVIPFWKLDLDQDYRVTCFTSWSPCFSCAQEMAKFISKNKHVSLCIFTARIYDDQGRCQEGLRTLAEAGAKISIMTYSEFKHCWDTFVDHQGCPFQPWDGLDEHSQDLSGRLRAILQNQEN
ALK tyrosine kinase receptor, sequence (Q9UM73 whole entry): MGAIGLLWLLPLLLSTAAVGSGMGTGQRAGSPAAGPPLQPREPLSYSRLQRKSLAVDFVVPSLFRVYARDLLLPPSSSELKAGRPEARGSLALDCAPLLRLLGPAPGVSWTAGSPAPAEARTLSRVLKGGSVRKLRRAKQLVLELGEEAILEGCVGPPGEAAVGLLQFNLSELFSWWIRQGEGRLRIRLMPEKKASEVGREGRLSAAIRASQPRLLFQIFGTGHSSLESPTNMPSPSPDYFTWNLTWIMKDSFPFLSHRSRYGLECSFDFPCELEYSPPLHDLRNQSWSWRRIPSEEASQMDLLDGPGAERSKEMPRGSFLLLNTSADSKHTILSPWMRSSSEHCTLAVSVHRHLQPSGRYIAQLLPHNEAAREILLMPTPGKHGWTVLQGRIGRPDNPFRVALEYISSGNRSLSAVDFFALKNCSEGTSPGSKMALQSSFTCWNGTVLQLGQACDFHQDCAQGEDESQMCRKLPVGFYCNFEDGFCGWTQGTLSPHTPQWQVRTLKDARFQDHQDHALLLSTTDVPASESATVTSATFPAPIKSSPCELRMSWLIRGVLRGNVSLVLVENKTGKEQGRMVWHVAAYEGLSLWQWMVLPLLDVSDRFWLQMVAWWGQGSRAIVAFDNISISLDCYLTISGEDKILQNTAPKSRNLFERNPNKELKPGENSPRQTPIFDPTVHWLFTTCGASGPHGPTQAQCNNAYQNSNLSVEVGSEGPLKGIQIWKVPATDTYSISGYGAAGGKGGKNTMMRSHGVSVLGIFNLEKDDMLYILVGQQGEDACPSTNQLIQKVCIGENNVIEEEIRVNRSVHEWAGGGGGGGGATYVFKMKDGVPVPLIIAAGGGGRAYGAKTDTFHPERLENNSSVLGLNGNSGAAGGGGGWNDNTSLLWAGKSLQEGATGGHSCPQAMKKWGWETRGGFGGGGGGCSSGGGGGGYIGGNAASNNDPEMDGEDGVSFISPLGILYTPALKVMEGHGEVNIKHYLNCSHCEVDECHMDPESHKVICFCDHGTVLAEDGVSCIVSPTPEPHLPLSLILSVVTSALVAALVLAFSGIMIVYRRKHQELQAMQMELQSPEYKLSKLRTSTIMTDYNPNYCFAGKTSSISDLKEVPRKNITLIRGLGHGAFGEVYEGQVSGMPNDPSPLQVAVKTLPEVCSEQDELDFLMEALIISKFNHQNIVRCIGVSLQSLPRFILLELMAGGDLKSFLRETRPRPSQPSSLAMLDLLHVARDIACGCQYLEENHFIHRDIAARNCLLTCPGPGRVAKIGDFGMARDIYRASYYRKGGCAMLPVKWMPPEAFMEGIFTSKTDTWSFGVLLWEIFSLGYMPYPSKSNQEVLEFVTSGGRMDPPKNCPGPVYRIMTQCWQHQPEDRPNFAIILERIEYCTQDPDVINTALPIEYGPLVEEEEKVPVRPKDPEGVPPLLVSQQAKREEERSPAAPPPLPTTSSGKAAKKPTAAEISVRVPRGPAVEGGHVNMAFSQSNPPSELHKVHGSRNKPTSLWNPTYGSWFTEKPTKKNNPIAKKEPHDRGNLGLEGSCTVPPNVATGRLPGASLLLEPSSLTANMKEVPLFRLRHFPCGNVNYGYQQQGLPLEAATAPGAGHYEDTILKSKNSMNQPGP
Focal adhesion kinase 1, sequence (Q05397 whole entry): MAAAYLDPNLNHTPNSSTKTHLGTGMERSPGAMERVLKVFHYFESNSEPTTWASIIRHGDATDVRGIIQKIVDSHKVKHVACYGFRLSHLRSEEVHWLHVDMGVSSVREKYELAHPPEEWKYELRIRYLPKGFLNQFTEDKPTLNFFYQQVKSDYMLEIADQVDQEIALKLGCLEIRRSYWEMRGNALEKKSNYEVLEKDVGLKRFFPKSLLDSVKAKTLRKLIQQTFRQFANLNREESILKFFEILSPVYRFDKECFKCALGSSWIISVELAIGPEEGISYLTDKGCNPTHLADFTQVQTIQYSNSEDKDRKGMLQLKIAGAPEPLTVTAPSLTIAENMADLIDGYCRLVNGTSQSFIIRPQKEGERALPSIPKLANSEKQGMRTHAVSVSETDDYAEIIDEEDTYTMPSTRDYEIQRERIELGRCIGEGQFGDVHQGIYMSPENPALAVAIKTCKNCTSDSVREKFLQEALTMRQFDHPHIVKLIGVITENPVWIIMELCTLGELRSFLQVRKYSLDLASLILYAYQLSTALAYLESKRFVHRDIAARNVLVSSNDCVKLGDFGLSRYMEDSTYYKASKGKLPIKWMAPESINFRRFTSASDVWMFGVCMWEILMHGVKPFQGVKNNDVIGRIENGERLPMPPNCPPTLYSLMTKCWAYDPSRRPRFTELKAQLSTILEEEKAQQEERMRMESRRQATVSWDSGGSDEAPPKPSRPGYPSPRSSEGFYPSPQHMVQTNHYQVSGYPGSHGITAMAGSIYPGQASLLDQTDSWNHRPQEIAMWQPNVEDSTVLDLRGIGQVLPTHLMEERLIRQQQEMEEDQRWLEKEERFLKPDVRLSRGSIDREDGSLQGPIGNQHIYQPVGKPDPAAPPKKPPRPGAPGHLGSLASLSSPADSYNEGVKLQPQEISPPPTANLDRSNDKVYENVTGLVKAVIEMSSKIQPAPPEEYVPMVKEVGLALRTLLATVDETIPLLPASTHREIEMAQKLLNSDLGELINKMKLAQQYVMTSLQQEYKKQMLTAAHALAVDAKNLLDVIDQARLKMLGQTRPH
Protein disulfide-isomerase A6, sequence (Q15084 whole entry): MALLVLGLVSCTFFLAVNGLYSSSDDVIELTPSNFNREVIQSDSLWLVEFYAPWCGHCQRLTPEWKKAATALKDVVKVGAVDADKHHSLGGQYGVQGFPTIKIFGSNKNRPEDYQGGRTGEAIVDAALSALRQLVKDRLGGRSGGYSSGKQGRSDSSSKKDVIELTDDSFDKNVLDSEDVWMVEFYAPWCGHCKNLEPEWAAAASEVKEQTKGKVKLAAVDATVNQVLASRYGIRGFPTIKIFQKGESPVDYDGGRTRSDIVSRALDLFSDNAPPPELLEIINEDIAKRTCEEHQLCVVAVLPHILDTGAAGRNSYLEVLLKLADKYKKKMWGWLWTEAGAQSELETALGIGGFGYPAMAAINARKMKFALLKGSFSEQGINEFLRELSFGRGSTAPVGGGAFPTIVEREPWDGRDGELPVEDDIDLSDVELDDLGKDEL
Aurora kinase A, sequence (O14965 whole entry): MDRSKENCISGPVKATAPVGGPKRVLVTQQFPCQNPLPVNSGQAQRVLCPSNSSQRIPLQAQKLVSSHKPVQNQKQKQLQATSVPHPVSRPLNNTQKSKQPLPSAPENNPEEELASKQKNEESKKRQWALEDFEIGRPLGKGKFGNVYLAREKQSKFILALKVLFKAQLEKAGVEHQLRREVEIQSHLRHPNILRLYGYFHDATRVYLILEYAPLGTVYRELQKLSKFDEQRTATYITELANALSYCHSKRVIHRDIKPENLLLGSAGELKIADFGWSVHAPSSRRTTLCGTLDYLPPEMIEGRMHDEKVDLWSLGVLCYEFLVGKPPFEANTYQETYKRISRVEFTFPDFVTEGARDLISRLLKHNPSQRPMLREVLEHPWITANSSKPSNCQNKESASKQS

For `CC(=O)Oc1ccc(N2C(=O)c3cccc4c([N+](=O)[O-])ccc(c34)C2=O)cc1`, the CC50 [1] was > 20 µM (active), the IC50 [2] was 6.34 µM (active) and the IC50 [3] was 4.06 µM (active). For the same molecule, the IC50 [4] was 9.16 µM (active) and the CC50 [5] was 6.74 µM (active).
In the case of `COc1ccc(-c2nnc(SCc3coc(-c4cccs4)n3)[nH]2)cc1`, the IC50 [6] is reported as > 99 µM (inactive) and the IC50 [7] is reported as > 99 µM (inactive).
For `Cc1cc(N2CCOCC2)cc2[nH]c(-c3c(NCCc4ccccc4)cc[nH]c3=O)nc12`, the Ki [8] was 0.794 µM (active), the Ki [9] was 0.126 µM (active) and the Ki [10] was 0.1 µM (active). The Ki [11] was > 1.58 µM (inactive).
With `CCOC(=O)C1(CCOc2ccccc2)CCN(Cc2ccc(O)c(Cl)c2)CC1` the AC50 [12] was 30 µM (inactive), the EC50 [13] was > 120 µM (not active) and the AC50 [14] was 99.6 µM (active). The AC50 [15] was > 52 µM (inactive), the AC50 [16] was 2 µM (active) and the EC50 [17] was > 120 µM (not active). The EC50 [18] was > 120 µM (not active), the AC50 [19] was 0.599 µM (active) and the EC50 [20] was > 380 µM (inactive).
In the case of `COc1ccc(CN(C(=O)c2nsc(Cl)c2Cl)C(C(=O)NC2CCCC2)c2ccc(C)cc2)cc1` (stereo not drawn), the IC50 [21] is reported as > 7.72 µM (active), the IC50 [22] is reported as > 69.5 µM (inactive) and the AC50 [23] is reported as 27.6 µM (active).

Source: ChEMBL document CHEMBL1201862, “PubChem BioAssay data set” (2004)
